The record followed here is US20090036469A1, “2,6-SUBSTITUTED-4-MONOSUBSTITUTED AMINO-PYRIMIDINE AS PROSTAGLANDIN D2 RECEPTOR ANTAGONISTS” (SANOFI-AVENTIS, priority 2006, published 2009).

Structures can show the parent of a compound that is named as a salt.

The target of this test is T1, DP receptor (Homo sapiens, UniProt Q13258).
T1 construct: the human cell line LS174T, which expresses the endogenous DP receptor; endogenous in cells; host or cells: LS174T human cell line
T1 sequence (Q13258 1-359): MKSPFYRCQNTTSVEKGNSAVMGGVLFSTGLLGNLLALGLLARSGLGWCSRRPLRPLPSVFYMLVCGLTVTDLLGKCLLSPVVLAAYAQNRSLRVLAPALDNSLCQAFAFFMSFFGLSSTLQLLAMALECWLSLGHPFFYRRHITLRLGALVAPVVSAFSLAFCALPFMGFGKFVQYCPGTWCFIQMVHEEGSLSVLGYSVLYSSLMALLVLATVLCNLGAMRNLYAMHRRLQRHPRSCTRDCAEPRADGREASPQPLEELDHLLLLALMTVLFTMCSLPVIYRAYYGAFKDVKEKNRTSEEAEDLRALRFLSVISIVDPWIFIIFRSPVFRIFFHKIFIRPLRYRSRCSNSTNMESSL
Nature of the test: SPA cAMP assay in human LS174 T cells (human DP functional assay). The format is cell-based. As to conditions: concentration of the compound that produces 50% inhibition in the SPA cAMP assay in human LS174 T cells; PGD2 15 nM final concentration. The source says:
As used in the examples and preparations that follow, as well as the rest of the application, the terms used therein shall have the meanings indicated: “kg” refers to kilograms, “g” refers to grams, “mg” refers to milligrams, “μg” refers to micrograms, “mol” refers to moles, “mmol” refers to millimoles, “M” refers to molar, “mM” refers to millimolar, “μM” refers to micromolar, “nM” refers to nanomolar, “L” refers to liters, “mL” or “ml” refers to milliliters, “μL” refers to microliters, “° C.” refers to degrees Celsius, “mp” or “m.p.” refers to melting point, “bp” or “b.p.” refers to boiling point, “mm of Hg” refers to pressure in millimeters of mercury, “cm” refers to centimeters, “nm” refers to nanometers, “abs.” refers to absolute, “conc.” refers to concentrated, “c” refers to concentration in g/mL, “rt” refers to room temperature, “TLC” refers to thin layer chromatography, “HPLC” refers to high performance liquid chromatography, “i.p.” refers to intraperitoneally, “i.v.” refers to intravenously, “s”=singlet, “d”=doublet; “t”=triplet; “q”=quartet; “m”=multiplet, “dd”=doublet of doublets; “br”=broad, “LC”=liquid chromatograph, “MS”=mass spectrograph, “ESI/MS”=electrospray ionization/mass spectrograph, “RT”=retention time, “M”=molecular ion, “PSI”=pounds per square inch, “DMSO”=dimethyl sulfoxide, “DMF”=N,N-dimethylformamide, “CDI”=1,1′-carbonyldiimidazole, “DCM” or “CH2Cl2”=dichloromethane, “HCl”=hydrochloric acid, “SPA”=Scintillation Proximity Assay, “ATTC”=American Type Culture Collection, “FBS”=Foetal Bovine Serum, “MEM”=Minimal Essential Medium, “CPM”=Counts Per Minute, “EtOAc”=ethyl acetate, “PBS”=Phosphate Buffered Saline, “TMD”=transmembrane domain, “IBMX”=3-isobutyl-1-methylxanthine, “cAMP”=cyclic adenosine monophosphate, “IUPAC”=International Union of Pure and Applied Chemistry, “MHz”=megahertz, “PEG”=polyethylene glycol, “MeOH”=methanol, “N”=normality, “THF”=tetrahydrofuran, “h”=hours, “min”=minute(s), “MeNH2”=methyl amine, “N2”=nitrogen gas, “O.D.”=outer diameter, “MeCN” or “CH3CN”=acetonitrile, “Et2O”=ethyl ether, “Prep LC”=preparatory “flash” liquid chromatography, “SPE”=solid phase extraction, “K2CO3”=potassium carbonate, “Na2CO3”=sodium carbonate, “pmol”=picomolar, “heptane”=n-heptane, “HMBA-AM” resin=4-hydroxymethylbenzoic acid amino methyl resin, “PdCl2(dppf)2”=1,1′-bis(diphenylphosphino)ferrocene-palladium (II) dichloride DCM complex, “˜”=approximately, and “IC50”=concentration of the compound that produces 50% inhibition in the SPA cAMP assay in human LS174 T cells.
The inhibitory effects of the compounds according to the invention are assessed in a human DP functional assay. A cAMP assay is employed using the human cell line LS174T, which expresses the endogenous DP receptor. The protocol is similar to that described previously (Wright D H, Ford-Hutchinson A W, Chadee K, Metters K M, The human prostanoid DP receptor stimulates mucin secretion in LS174T cells, Br J Pharmacol. 131(8):1537-45 (2000)).
Protocol for SPA cAMP Assay in Human LS174 T Cells
Add 50 μL of […] IBMX into 100 mL PBS to make a final concentration of 100 μM and sonicate at 30° C. for 20 minutes.
Dissolve 1 mg PGD2 (FW, 352.5) in 284 μL DMSO to make 10 mM stock solution and store at […]. Before each assay, it is freshly prepared. Add 3 μL of 10 mM stock solution to 20 mL DMSO, mix it thoroughly, and transfer 10 mL to 40 mL PBS.
Compound dilution is carried out in Biomex 2000 (Beckman) using Method 1_cAMP DP 11 points.
5 μL of each compound from the 10 mM stock compound plates is transferred to the wells of a 96-well plate respectively as below.
Fill the plate with 45 μL of DMSO except column 7 is filled with 28 μL DMSO. Pipette column 1 thoroughly, and transfer 12 μL into column 7 parallel. Perform 1:10 serial dilution from column 1 to column 6 and from column 7 to column 11 by transfer 5 μL to 45 μL DMSO to make following concentrations:
Fill a new 96-well plate with 247.5 μL of compound dilution buffer. […]

In turn, `COc1nc(NCCc2ccc(Cl)cc2Cl)cc(-c2cccc(C(C)(C)C(=O)NS(=O)(=O)C(C)(C)C)c2)n1` [Example 7(a), 2-Methyl-propane-2-sulfonic acid [2-(3-{6-[2-(2,4-dichloro-phenyl)-ethylamino]-2-methoxy-pyrimidin-4-yl}-phenyl)-2-methyl-propionyl]-amide] had an IC50 of 2 nM. For `COc1nc(NCCc2ccc(Cl)cc2Cl)cc(-c2cc(C(C)(C)O)cc(C(C)(C)O)c2)n1` [Example 3, 2-[3-{6-[2-(2,4-Dichloro-phenyl)-ethylamino]-2-methoxy-pyrimidin-4-yl}-5-(1-hydroxy-1-methyl-ethyl)-phenyl]-propan-2-ol] the value was 730 nM; for `COc1nc(NCCc2ccc(OC(F)(F)F)cc2)cc(-c2ccc(C(=O)O)s2)n1` [Example 12, 5-{2-Methoxy-6-[2-(4-trifluoromethoxy-phenyl)-ethylamino]-pyrimidin-4-yl}-thiophene-2-carboxylic acid], 2 nM.

Compound `COc1nc(NCCc2ccc(Cl)cc2Cl)cc(N2CCCC(C(=O)Nc3nnn[nH]3)C2)n1` (stereo not shown) [Example 11(e), 1-{6-[2-(2,4-Dichloro-phenyl)-ethylamino]-2-methoxy-pyrimidin-4-yl}-piperidine-3-carboxylic acid (1H-tetrazol-5-yl)-amide] showed a concentration for half-maximal inhibition (IC50) of 4.4 nM.

`COc1nc(NCCc2ccc(Cl)cc2Cl)cc(N2CCC(C(=O)O)C2)n1` (stereo not shown) [Example 1] yielded an IC50 of 9 nM.

Take `COc1nc(NCCc2ccc(OC(F)(F)F)cc2)cc(N2CCCC(C(=O)O)C2)n1` (stereo not shown) [Example 9, 1-{2-Methoxy-6-[2-(4-trifluoromethoxy-phenyl)-ethylamino]-pyrimidin-4-yl}-piperidine-3-carboxylic acid]: the half-inhibitory concentration (IC50) came to 9 nM.

In turn, `COc1nc(NCCc2ccc(Cl)cc2Cl)cc(N2CCCC(C(=O)NS(=O)(=O)N(C)C)C2)n1` (stereo not shown) [Example 11(h), N,N-Dimethylamide-2-sulfonic acid 1-{6-[2-(2,4-dichloro-phenyl)-ethylamino]-2-methoxy-pyrimidin-4-yl}-piperidine-3-carboxamide] yielded an IC50 of 14 nM.

As to `COc1nc(NCCc2ccc(Cl)cc2Cl)cc(N2CCC(NC(C)=O)CC2)n1` [Example 5(b), N-(1-{6-[2-(2,4-Dichloro-phenyl)-ethylamino]-2-methoxy-pyrimidin-4-yl}-piperidin-4-yl)-acetamide], the IC50 was determined as 26 nM. The figure for `COc1nc(NCCc2ccc(Cl)cc2Cl)cc(-c2cccc(C(C)(C)C(=O)N3CCSCC3)c2)n1` [Example 7(c), 2-(3-{6-[2-(2,4-Dichloro-phenyl)-ethylamino]-2-methoxy-pyrimidin-4-yl}-phenyl)-2-methyl-1-thiomorpholin-4-yl-propan-1-one] is 383 nM; for `COc1nc(NCCc2ccc(Cl)cc2Cl)cc(N2CCCC(N)C2)n1` (stereo not shown) [Example 4, [6-(3-Amino-piperidin-1-yl)-2-methoxy-pyrimidin-4-yl]-[2-(2,4-dichloro-phenyl)-ethyl]-amine] it is 985 nM. The figure for `COc1nc(NCCc2ccc(Cl)cc2Cl)cc(N2CCCC(C(=O)NS(=O)(=O)C(F)(F)F)C2)n1` (stereo not shown) [Example 11(d), N-(1-{6-[2-(2,4-Dichloro-phenyl)-ethylamino]-2-methoxy-pyrimidin-4-yl}-piperidine-3-carbonyl)-C,C,C-trifluoro-methanesulfonamide] is 18 nM. `COc1nc(NCCc2ccc(OC(F)(F)F)cc2)cc(N2CCCC(C(=O)NS(C)(=O)=O)C2)n1` (stereo not shown) [Example 10, N-(1-{2-Methoxy-6-[2-(4-trifluoromethoxy-phenyl)-ethylamino]-pyrimidin-4-yl}-piperidine-3-carbonyl)-methanesulfonamide] had a half-inhibitory concentration (IC50) of 22 nM. The IC50 values of the last two compounds are within 1.5-fold of each other. For `COc1nc(NCCc2ccc(OC(F)(F)F)cc2)cc(N2CCCC(C(C)(C)C(=O)O)C2)n1` (stereo not shown) [Example 2, 2-(1-{2-Methoxy-6-[2-(4-trifluoromethoxy-phenyl)-ethylamino]-pyrimidin-4-yl}-piperidin-3-yl)-2-methyl-propionic acid] the value was 2 nM; for `COc1nc(NCCc2ccc(Cl)cc2Cl)cc(-c2ccc3c(c2)CC(C(=O)O)O3)n1` (stereo not shown) [Example 13, 5-{6-[2-(2,4-Dichloro-phenyl)-ethylamino]-2-methoxy-pyrimidin-4-yl}-2,3-dihydro-benzofuran-2-carboxylic acid hydrochloride], 2 nM. The figure for `COc1nc(NCCc2ccc(Cl)cc2Cl)cc(N2CCCC(CC(=O)O)C2)n1` (stereo not shown) [Example 8, (1-{6-[2-(2,4-Dichloro-phenyl)-ethylamino]-2-methoxy-pyrimidin-4-yl}-piperidin-3-yl)-acetic acid] is 0.5 nM; for `COc1nc(NCCc2ccc(Cl)cc2Cl)cc(N2CCCC(C(=O)NS(C)(=O)=O)C2)n1` (stereo not shown) [Example 11(a), N-(1-{6-[2-(2,4-Dichloro-phenyl)-ethylamino]-2-methoxy-pyrimidin-4-yl}-piperidine-3-carbonyl)-methanesulfonamide] it is 1 nM.
